Patent US20200278355A1, “CONJUGATED PROTEINS AND USES THEREOF” (THE SCRIPPS RESEARCH INSTITUTE, priority 2017, published 2020)

Experiments:
[1] = biological target: T1, FLAG-NR0B1 (WT) (Homo sapiens, UniProt P51843); experiment: Gel-based BPK-29yne labeling of NR0B1 and competition in HEK293T cells; type: cell-based; conditions: 30 min, in-gel fluorescence
T1 construct: expressed in transfected cells; host or cells: HEK-293T, transient, pRK5-based vector
Method: (§1) 4×10^6 HEK-293T cells were seeded in poly-L-lysine coated 10 cm plates and transfected the next day with 5 μg of FLAG-NR0B1, FLAG-NR0B1-C274V, or FLAG-METAP2 cDNA in a pRK5-based expression vector. 48 h after transfection, cells were treated with indicated concentrations of BPK-29 or control compound BPK-27 for 3 h at 37° C. in DMEM containing 10% FBS and supplements as described in Cell Culture. BPK-29yne (5 μM) was then added and incubated for an additional 30 min at 37° C. FLAG immunoprecipitates were prepared as described above and following washes, the FLAG resin was resuspended in PBS (100 μL). To each sample, 12 μL of a freshly prepared “click” reagent mixture was added to conjugate the fluorophore to probe-labeled proteins. […] Samples were boiled for 5 min and proteins were resolved by SDS-PAGE (10% acrylamide), and visualized by in-gel fluorescence on a Bio-Rad ChemiDoc MP flatbed fluorescence scanner. Samples were also analyzed by immunoblotting. Recombinantly expressed FLAG-tagged protein levels were determined with the FLAG antibody (Sigma). Gel fluorescence and imaging was processed using Image Lab (v 5.2.1) software.

[2] = biological target: T2, FLAG-NR0B1-C274V (Homo sapiens, UniProt P51843, C274V); experiment: Gel-based BPK-29yne labeling of the NR0B1-C274V mutant in HEK293T cells; type: cell-based; conditions: 30 min, in-gel fluorescence
T2 construct: expressed in transfected cells; host or cells: HEK-293T, transient, pRK5-based vector
Method: as §1

T2 sequence (P51843 whole entry C274V): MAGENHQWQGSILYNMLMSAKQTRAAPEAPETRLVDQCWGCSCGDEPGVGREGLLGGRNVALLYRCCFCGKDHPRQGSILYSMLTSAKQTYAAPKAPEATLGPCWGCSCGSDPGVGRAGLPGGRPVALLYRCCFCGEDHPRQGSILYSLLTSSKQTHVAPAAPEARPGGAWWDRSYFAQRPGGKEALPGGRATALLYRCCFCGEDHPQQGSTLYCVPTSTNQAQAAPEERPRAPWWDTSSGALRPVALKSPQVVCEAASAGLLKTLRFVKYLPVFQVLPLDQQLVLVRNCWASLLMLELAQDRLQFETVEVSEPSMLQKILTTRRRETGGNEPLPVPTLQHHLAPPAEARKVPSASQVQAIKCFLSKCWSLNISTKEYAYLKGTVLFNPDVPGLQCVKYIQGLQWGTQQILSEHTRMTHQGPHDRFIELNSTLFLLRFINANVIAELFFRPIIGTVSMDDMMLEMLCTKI
T1 sequence (P51843 whole entry): as the sequence (P51843 whole entry C274V) above, with V274C counted along it

C#Cc1cccc(CN(C(=O)CCl)C2CCCN(C(=O)c3ccc(N4CCOCC4)cc3)CC2)c1 (centres unmarked) [BPK-29yne, 2-chloro-N-(3-ethynylbenzyl)-N-(1-(4-morpholinobenzoyl)azepan-4-yl)acetamide]
BPK-29yne labeling of WT-NR0B1 [1]: labeled WT-NR0B1 | BPK-29yne labeling of NR0B1 C274V mutant [2]: but not a C274V mutant
